“And” between values parts separate entries of the source, which are not always exact repeats. Equal values may be shown once. Read-outs that look alike come from different tables or passages of the source. One block for each molecule: values may come before it.
How the values were obtained:
PPARG = biological target: T1, PPARG (Homo sapiens, UniProt P37231); assay: PPARγ Ligand Screening Assay Kit (PPARG); assay type: binding; conditions: target PPARG; mean ± SD of three independent repeats, Bliss method, eight data points
T1 sequence (P37231 1-505): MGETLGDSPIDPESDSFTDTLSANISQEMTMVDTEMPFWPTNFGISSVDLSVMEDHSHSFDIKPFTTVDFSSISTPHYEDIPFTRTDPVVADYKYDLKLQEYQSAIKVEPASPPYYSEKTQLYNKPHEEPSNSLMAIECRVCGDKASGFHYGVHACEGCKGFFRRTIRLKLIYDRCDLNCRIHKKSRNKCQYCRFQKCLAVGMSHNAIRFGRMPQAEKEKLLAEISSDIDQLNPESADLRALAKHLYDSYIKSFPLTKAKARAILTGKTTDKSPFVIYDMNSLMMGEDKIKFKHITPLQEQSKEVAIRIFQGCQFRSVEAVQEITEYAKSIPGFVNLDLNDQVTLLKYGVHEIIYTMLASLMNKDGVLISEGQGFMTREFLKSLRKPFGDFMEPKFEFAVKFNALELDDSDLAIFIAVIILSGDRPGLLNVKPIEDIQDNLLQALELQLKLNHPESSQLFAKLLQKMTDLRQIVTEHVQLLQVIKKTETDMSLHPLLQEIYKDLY
Protocol: (§1) To validate the practicability of WES model, we randomly selected Enpp2, Faah, PTGS2, PPARG, and REN, the five inflammation-related targets, and predicted their direct ligand-target interactions. The 24 top-scoring (hybrid-WES) and commercially available drug-target interactions (Table 3) were tested by the ligand-binding assays.
(§2) Enpp2 (Autotaxin Inhibitor Screening Assay Kit), Faah (FAAH Inhibitor Screening Assay Kit), PTGS2 (COX Inhibitor Screening Assay Kit), PPARG (PPARγ Ligand Screening Assay Kit), and REN (Renin Inhibitor Screening Assay Kit) were purchased from Cayman Chemical, Ann Arbor, MI, USA. […] The activity of targets was detected according to manufacturer’s instructions. IC50 values were determined using the Bliss method according to the eight data points per drug. The same drug-target interaction was repeated independently three times to obtain a mean IC50 value and its standard deviation.

Faah = biological target: T2, Faah (Homo sapiens, UniProt O00519); assay: FAAH Inhibitor Screening Assay Kit (Faah); assay type: biochemical; conditions: target Faah; mean ± SD of three independent repeats, Bliss method, eight data points
T2 construct: purchased Cayman Chemical
T2 sequence (O00519 1-579): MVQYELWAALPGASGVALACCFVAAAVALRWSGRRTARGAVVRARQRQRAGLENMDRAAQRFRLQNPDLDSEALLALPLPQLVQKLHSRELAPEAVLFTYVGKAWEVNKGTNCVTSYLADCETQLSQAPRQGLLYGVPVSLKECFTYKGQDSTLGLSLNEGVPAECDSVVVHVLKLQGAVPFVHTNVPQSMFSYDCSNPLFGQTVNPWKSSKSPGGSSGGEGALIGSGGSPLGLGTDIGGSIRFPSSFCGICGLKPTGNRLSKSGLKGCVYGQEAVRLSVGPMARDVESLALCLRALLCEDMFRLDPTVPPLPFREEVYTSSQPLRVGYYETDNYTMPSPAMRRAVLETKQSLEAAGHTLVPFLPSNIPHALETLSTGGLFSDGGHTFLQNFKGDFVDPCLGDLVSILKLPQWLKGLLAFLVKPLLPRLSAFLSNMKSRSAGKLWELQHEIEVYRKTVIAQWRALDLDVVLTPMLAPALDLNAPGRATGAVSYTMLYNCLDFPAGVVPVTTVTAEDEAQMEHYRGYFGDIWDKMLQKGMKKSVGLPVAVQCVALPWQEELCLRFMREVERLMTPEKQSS
Protocol: as §1, §2

Enpp2 = biological target: T3, Enpp2 (Homo sapiens, UniProt Q13822); assay: Autotaxin Inhibitor Screening Assay Kit (Enpp2); assay type: biochemical
T3 construct: purchased Cayman Chemical
Protocol: as §1, §2

PTGS2 = biological target: T4, PTGS2 (Homo sapiens, UniProt P35354); assay: COX Inhibitor Screening Assay Kit (PTGS2); assay type: biochemical; conditions: target PTGS2; mean ± SD of three independent repeats, Bliss method, eight data points
T4 construct: purchased Cayman Chemical
T4 sequence (P35354 18-604): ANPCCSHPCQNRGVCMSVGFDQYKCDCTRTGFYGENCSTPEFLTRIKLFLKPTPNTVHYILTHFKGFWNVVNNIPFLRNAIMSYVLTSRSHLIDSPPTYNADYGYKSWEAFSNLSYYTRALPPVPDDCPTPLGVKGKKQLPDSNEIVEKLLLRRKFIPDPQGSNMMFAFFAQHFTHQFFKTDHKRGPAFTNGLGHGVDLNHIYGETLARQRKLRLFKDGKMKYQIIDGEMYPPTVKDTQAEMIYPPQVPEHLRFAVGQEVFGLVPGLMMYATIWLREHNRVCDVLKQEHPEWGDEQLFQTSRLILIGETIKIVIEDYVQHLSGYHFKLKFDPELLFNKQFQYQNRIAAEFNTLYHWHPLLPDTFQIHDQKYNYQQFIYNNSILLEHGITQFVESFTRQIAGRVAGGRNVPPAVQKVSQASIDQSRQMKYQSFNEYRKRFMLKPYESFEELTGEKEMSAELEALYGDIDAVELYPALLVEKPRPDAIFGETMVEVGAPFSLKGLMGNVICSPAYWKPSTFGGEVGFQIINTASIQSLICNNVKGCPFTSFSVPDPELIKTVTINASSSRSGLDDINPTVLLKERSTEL
Protocol: as §1, §2

REN = biological target: T5, REN (Homo sapiens, UniProt P00797); assay: Renin Inhibitor Screening Assay Kit (REN); assay type: biochemical; conditions: target REN; mean ± SD of three independent repeats, Bliss method, eight data points
T5 construct: purchased Cayman Chemical
T5 sequence (P00797 67-406): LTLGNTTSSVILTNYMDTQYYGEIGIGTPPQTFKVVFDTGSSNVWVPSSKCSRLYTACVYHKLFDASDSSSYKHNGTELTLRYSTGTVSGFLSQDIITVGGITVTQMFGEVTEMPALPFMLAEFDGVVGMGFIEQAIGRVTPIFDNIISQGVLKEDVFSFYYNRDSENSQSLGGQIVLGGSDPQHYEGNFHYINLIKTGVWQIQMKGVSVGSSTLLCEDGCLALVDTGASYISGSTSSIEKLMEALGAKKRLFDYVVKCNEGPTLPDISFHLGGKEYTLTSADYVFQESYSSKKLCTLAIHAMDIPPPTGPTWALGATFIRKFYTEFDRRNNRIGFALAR
Protocol: as §1, §2

[1] = target Enpp2, mean ± SD of three independent repeats, Bliss method, eight data points, read-out: IC50 (μM):mean ± SD

Molecule: CC/C=C\C/C=C\C/C=C\CCCCCCCC(=O)O [Alpha-linolenic acid]
IC50 (Faah): 43.9 µM and 53.9 µM

Molecule: CCN(CC)CC(=O)OCC(=O)[C@@]1(O)CC[C@H]2[C@@H]3CCC4=CC(=O)CC[C@]4(C)[C@H]3[C@@H](O)C[C@@]21C [Hydrocortamate]
IC50 (Enpp2; [1]): 218 ± 6.4 µM

Molecule: CC(C)C[C@H](NC(=O)[C@H](CCc1ccccc1)NC(=O)CN1CCOCC1)C(=O)N[C@@H](Cc1ccccc1)C(=O)N[C@@H](CC(C)C)C(=O)[C@@]1(C)CO1 [Carfilzomib]
IC50 (REN): 22 ± 6.4 µM

Molecule: CCCCCCCCc1ccc(CCC(N)(CO)CO)cc1 [Fingolimod]
IC50 (Enpp2; [1]): 115 ± 5.8 µM

Molecule: COC(=O)CCc1ccc(OCC(O)CNC(C)C)cc1 (stereo not drawn) [Esmolol]
IC50 (PPARG): 40.8 ± 6.5 µM

Molecule: Felypressin (CFFQNCPKG)
IC50 (REN): 4.5 ± 7.1 µM

Molecule: Cetrorelix (AFASYRLRPA)
IC50 (REN): 156 ± 3.7 µM

Molecule: CN[C@H](CC(C)C)C(=O)N[C@H]1C(=O)N[C@@H](CC(N)=O)C(=O)N[C@H]2C(=O)N[C@H]3C(=O)N[C@H](C(=O)N[C@H](C(=O)O)c4cc(O)cc(O)c4-c4cc3ccc4O)[C@H](O)c3ccc(c(Cl)c3)Oc3cc2cc(c3O[C@@H]2O[C@H](CO)[C@@H](O)[C@H](O)[C@H]2O[C@H]2C[C@](C)(N)[C@H](O)[C@H](C)O2)Oc2ccc(cc2Cl)[C@H]1O [Vancomycin]
IC50 (Enpp2): 68.5 ± 7 µM

Next, values leading:

IC50 (PPARG): 69 ± 17.5 µM | IC50 (μM):mean ± SD (PPARG): micromolar concentration range
Molecule: CCCCC[C@H](O)CC[C@@H]1[C@H]2Cc3cccc(OCC(=O)O)c3C[C@H]2C[C@H]1O [Treprostinil]

IC50 (PTGS2): 138 ± 3.5 µM
Molecule: Cc1c(C(=O)NN2CCCCC2)nn(-c2ccc(Cl)cc2Cl)c1-c1ccc(Cl)cc1 [Rimonabant]

IC50 (PTGS2): 199 ± 12.3 µM
Molecule: CC[C@H](C)C(=O)O[C@H]1C[C@H](O)C=C2C=C[C@H](C)[C@H](CC[C@@H](O)C[C@@H](O)CC(=O)O)[C@H]21 [Pravastatin]

IC50 (REN): 49.3 ± 10.3 µM
Molecule: Cc1cccc(C)c1OCC(=O)N[C@@H](Cc1ccccc1)[C@@H](O)C[C@H](Cc1ccccc1)NC(=O)[C@H](C(C)C)N1CCCNC1=O [Lopinavir]

IC50 (Faah): 34.5 ± 1.5 µM
Molecule: CC(=O)OCC(=O)NCCCOc1cccc(CN2CCCCC2)c1 [Roxatidine acetate]

IC50 (REN): 69.1 ± 4.2 µM
Molecule: CC(C)(C)NC(=O)[C@@H]1C[C@@H]2CCCC[C@@H]2CN1C[C@@H](O)[C@H](Cc1ccccc1)NC(=O)[C@H](CC(N)=O)NC(=O)c1ccc2ccccc2n1 [Saquinavir]

IC50 (PTGS2): 123 ± 7.4 µM
Molecule: C/C(=C\C(=O)OCCCCCCCCC(=O)O)C[C@@H]1OC[C@H](C[C@@H]2O[C@H]2[C@@H](C)[C@H](C)O)[C@@H](O)[C@H]1O [Mupirocin]

IC50 (Enpp2; [1]): 73.3 ± 9.7 µM
Molecule: Pasireotide

IC50 (REN): 44.3 ± 12.1 µM
Molecule: CC(C)(C)NC(=O)[C@@H]1CN(Cc2cccnc2)CCN1C[C@@H](O)C[C@@H](Cc1ccccc1)C(=O)N[C@H]1c2ccccc2C[C@H]1O [Indinavir]

Reference: paper PMC4496667, “Large-scale Direct Targeting for Drug Repositioning and Discovery” (Scientific Reports, 2015)
